# Experimental data as given in patent US20080009511A1, “Cancer treatment with compounds inhibiting PKC alpha” (priority 2004, published 2008).
# Key:
# [1] = test system: A431 human epidermoid carcinoma cells; assay: Cell viability assay (trypan blue dye exclusion), viable cells counted at day 6; format: cell-based; conditions: for Treated (cell number × 10^5): about 4×10^4 cells seeded, untreated 5.4 ± 0.4
# Protocol: (§1) The following cancer cells were maintained in Dulbecco's modified Eagle medium (DMEM) supplemented with 10 percent bovine calf serum. Cells were seeded for 24 hours. Then they were treated with PKC inhibitors or left untreated. The cells were then collected periodically and evaluated using trypan blue dye exclusion to assess viability using the method described by C Y Chen, et al., in J. Biol. Chem. 273:16700-16709. Cultures containing about 4×10^4 cells were treated with 5 micromoles of Gö7874 (except that PC3 prostate cancer cells were treated with 10 micromoles) and the viable cells were counted at day 6. […] Cultures containing about 4×10^4 cells were treated with or without 10 micromoles of Gö6850 and the viable cells were counted at day 6. […] Cultures containing about 4×10^4 cells were treated with or without 10 micromoles of NGIC-I and the viable cells were counted at day 6. […] Cultures containing about 4×10^4 cells were treated with or without 10 micromoles of Ro31-7549 and the viable cells were counted at day 6. […] Cultures containing about 4×10^4 cells were treated with or without 10 micromoles of Ro31-8220 and the viable cells were counted at day 6. […] Cultures containing about 4×10^4 cells were treated with or without 10 micromoles of Ro31-8425 and the viable cells were counted at day 6. […] Cultures containing about 4×10^4 cells were treated with or without 10 micromoles of Ro31-0432 and the viable cells were counted at day 6.
# [2] = test system: AGS human gastric cancer cells; assay: as above; format: cell-based; conditions: for Treated (cell number × 10^5): about 4×10^4 cells seeded, untreated 2.4 ± 0.3
# Protocol: as §1
# [3] = test system: H460 human lung cancer cells; assay: as above; format: cell-based; conditions: for Treated (cell number × 10^5): about 4×10^4 cells seeded, untreated 2.4 ± 0.2
# Protocol: as §1
# [4] = test system: HT29 human colon cancer cells; assay: as above; format: cell-based; conditions: for Treated (cell number × 10^5): about 4×10^4 cells seeded, untreated 3.8 ± 0.4
# Protocol: as §1
# [5] = test system: Hela human cervical cancer cells; assay: as above; format: cell-based; conditions: for Treated (cell number × 10^5): about 4×10^4 cells seeded, untreated 3.4 ± 0.4
# Protocol: as §1
# [6] = test system: HepG2 human liver cancer cells; assay: as above; format: cell-based; conditions: for Treated (cell number × 10^5): about 4×10^4 cells seeded, untreated 4.2 ± 0.4
# Protocol: as §1
# [7] = test system: Jurkat cells (a human acute T-cell leukemia cell line); assay: as above; format: cell-based; conditions: for Treated (cell number × 10^5): about 4×10^4 cells seeded, untreated 8.8 ± 0.4
# Protocol: as §1
# [8] = test system: MDA-MB-468 human breast cancer cells; assay: as above; format: cell-based; conditions: for Treated (cell number × 10^5): about 4×10^4 cells seeded, untreated 6.1 ± 0.4
# Protocol: as §1
# [9] = test system: NBT-II human bladder cancer cells; assay: as above; format: cell-based; conditions: for Treated (cell number × 10^5): about 4×10^4 cells seeded, untreated 2.9 ± 0.4
# Protocol: as §1
# [10] = test system: PANC-1 human pancreatic carcinoma cells; assay: as above; format: cell-based; conditions: for Treated (cell number × 10^5): about 4×10^4 cells seeded, untreated 2.1 ± 0.3
# Protocol: as §1
# [11] = test system: PC3 human prostate cancer cells; assay: as above; format: cell-based; conditions: 10 micromoles; for Treated (cell number × 10^5): about 4×10^4 cells seeded, untreated 7.1 ± 0.3
# Protocol: as §1
# [12] = test system: U251 human glioma cells; assay: as above; format: cell-based; conditions: for Treated (cell number × 10^5): about 4×10^4 cells seeded, untreated 9.6 ± 0.5
# Protocol: as §1
# [13] = test system: KB oral cancer cells; assay: as above; format: cell-based, human; conditions: for Treated (cell number × 10^5): about 4×10^4 cells seeded, untreated 3.8 ± 0.4
# Protocol: as §1
# [14] = test system: human cancer cells; assay: Cell viability assay, summary over the panel of cancer cells; format: cell-based; conditions: 10 micromoles; day 6; cell lines not named as going to apoptosis
# Protocol: The following cancer cells were maintained in Dulbecco's modified Eagle medium (DMEM) supplemented with 10 percent bovine calf serum. Cells were seeded for 24 hours. Then they were treated with PKC inhibitors or left untreated. The cells were then collected periodically and evaluated using trypan blue dye exclusion to assess viability using the method described by C Y Chen, et al., in J. Biol. Chem. 273:16700-16709. Cultures containing about 4×10^4 cells were treated with or without 10 micromoles of Gö6850 and the viable cells were counted at day 6. […] Cultures containing about 4×10^4 cells were treated with or without 10 micromoles of NGIC-I and the viable cells were counted at day 6. […] Cultures containing about 4×10^4 cells were treated with or without 10 micromoles of Ro31-7549 and the viable cells were counted at day 6. […] Cultures containing about 4×10^4 cells were treated with or without 10 micromoles of Ro31-8220 and the viable cells were counted at day 6. […] Cultures containing about 4×10^4 cells were treated with or without 10 micromoles of Ro31-8425 and the viable cells were counted at day 6. […] Cultures containing about 4×10^4 cells were treated with or without 10 micromoles of Ro31-0432 and the viable cells were counted at day 6.
# [15] = test system: 3Y1 rat fibroblast cells overexpressing EGF receptors (3Y1-EGFR cells); assay: EGF-induced cell transformation (transformed morphology); format: cell-based; conditions: 1 micromole; for cell apoptosis during co-treatment: co-treatment with 100 ng/ml EGF; for effect on EGF-induced transformed morphology: co-treatment with 100 ng/ml EGF for 48 hours
# [16] = test system: 3Y1 rat fibroblast cells overexpressing the epidermal growth factor receptor (EGFR); assay: Soft agar/cell transformation assay; format: cell-based; conditions: 1 micromole with EGF (100 ng/ml), in contrast to EGF alone
# Source text: 1×10^3 3Y1 rat fibroblast cells overexpressing the epidermal growth factor receptor (EGFR) were suspended in top agar (consisting of 20 percent calf serum, 0.38 percent agar and the remainder DMEM) and overlaid onto bottom agar (DMEM, 20 percent calf serum and 0.7 percent agar) as reported by Sementchenko et al., in Onocgen 17:2883-2888.
# [17] = test system: U-937 lymphoma cells; assay: Cell viability assay (trypan blue dye exclusion), viable cells counted at day 6; format: cell-based, human; conditions: 5 micromoles
# Protocol: Cells were seeded for 24 hours. Then they were treated with PKC inhibitors or left untreated. The cells were then collected periodically and evaluated using trypan blue dye exclusion to assess viability using the method described by C Y Chen, et al., in J. Biol. Chem. 273:16700-16709. Cultures containing about 4×10^4 cells were treated with 5 micromoles of Gö7874 (except that PC3 prostate cancer cells were treated with 10 micromoles) and the viable cells were counted at day 6.
# [18] = 10 micromoles, growth vs untreated
smiles,measurement,setting,value
Cl.Cn1cc(C2=C(c3c4n(c5ccccc35)CCC(CN)C4)C(=O)NC2=O)c2ccccc21 (centres unmarked) [Ro31-8425],Treated (cell number × 10^5),[1]; 10 micromoles,2.6 × 10^5
same,% inhibiton,[1]; [18],52%
same,cells that went to apoptosis upon treatment,[2]; 10 micromoles,all
same,Treated (cell number × 10^5),[2]; 10 micromoles,0 × 10^5
same,% inhibiton,[2]; [18],"* (indicates the inhibitor causes significant cell death, and cell number is less than originally seeded cell number.)"
same,cells that went to apoptosis upon treatment,[3]; 10 micromoles,all
same,Treated (cell number × 10^5),[3]; 10 micromoles,0 × 10^5
same,% inhibiton,[3]; [18],"* (indicates the inhibitor causes significant cell death, and cell number is less than originally seeded cell number.)"
same,Treated (cell number × 10^5),[4]; 10 micromoles,0.6 × 10^5
same,% inhibiton,[4]; [18],85%
same,cells that went to apoptosis upon treatment,[5]; 10 micromoles,all
same,Treated (cell number × 10^5),[5]; 10 micromoles,0 × 10^5
same,% inhibiton,[5]; [18],"* (indicates the inhibitor causes significant cell death, and cell number is less than originally seeded cell number.)"
same,Treated (cell number × 10^5),[6]; 10 micromoles,0.4 × 10^5
same,% inhibiton,[6]; [18],90%
same,cells that went to apoptosis upon treatment,[7]; 10 micromoles,significant number
same,Treated (cell number × 10^5),[7]; 10 micromoles,0.3 × 10^5
same,% inhibiton,[7]; [18],"* (indicates the inhibitor causes significant cell death, and cell number is less than originally seeded cell number.)"
same,cells that went to apoptosis upon treatment,[8]; 10 micromoles,significant number
same,Treated (cell number × 10^5),[8]; 10 micromoles,0.1 ± 0.05 × 10^5
same,% inhibiton,[8]; [18],"* (indicates the inhibitor causes significant cell death, and cell number is less than originally seeded cell number.)"
same,cells that went to apoptosis upon treatment,[9]; 10 micromoles,significant number
same,Treated (cell number × 10^5),[9]; 10 micromoles,0.3 × 10^5
same,% inhibiton,[9]; [18],"* (indicates the inhibitor causes significant cell death, and cell number is less than originally seeded cell number.)"
same,cells that went to apoptosis upon treatment,[10]; 10 micromoles,all
same,Treated (cell number × 10^5),[10]; 10 micromoles,0 × 10^5
same,% inhibiton,[10]; [18],"* (indicates the inhibitor causes significant cell death, and cell number is less than originally seeded cell number.)"
same,Treated (cell number × 10^5),[11],3 × 10^5
same,% inhibiton,[11]; growth vs untreated,53%
same,Treated (cell number × 10^5),[12]; 10 micromoles,1.4 × 10^5
same,% inhibiton,[12]; [18],85%
same,cells that went to apoptosis upon treatment,[13]; 10 micromoles,all
same,Treated (cell number × 10^5),[13]; 10 micromoles,0 × 10^5
same,% inhibiton,[13]; [18],"* (indicates the inhibitor causes significant cell death, and cell number is less than originally seeded cell number.)"
same,"inhibition of growth in contrast to untreated cells, range over the other treated cancer cells",[14],52-90%
same,cell apoptosis during co-treatment,[15],without detected cell apoptosis
same,effect on EGF-induced transformed morphology,[15],partially blocked
same,reduction of colony number in soft agar,[16],72%
"COc1ccc2c(c1)c1c3c(c4c5ccccc5n(C)c4c1n2CC(O)CN(C)C)C(=O)NC3=O.Cl (centres unmarked) [Gö7874, 5,7(6H)-dione,13-[3-(dimethylamino)-2-hydroxypropyl]-12,13-dihydro-3-methoxy-12-methyl-5H-Indolo[2,3-a]pyrrolo[3,4-c]carbazole, monohydrochloride]",cells that went to apoptosis after treatment,[1]; 5 micromoles,all
same,Treated (cell number × 10^5),[1]; 5 micromoles,0 × 10^5
same,cells that went to apoptosis after treatment,[2]; 5 micromoles,all
same,inhibition of cell proliferation,[2]; 5 micromoles,More than 60%
same,Treated (cell number × 10^5),[2]; 5 micromoles,0.8 × 10^5
same,cells that went to apoptosis after treatment,[3]; 5 micromoles,all
same,Treated (cell number × 10^5),[3]; 5 micromoles,0 × 10^5
same,cells that went to apoptosis after treatment,[4]; 5 micromoles,all
same,Treated (cell number × 10^5),[4]; 5 micromoles,0 × 10^5
same,cells that went to apoptosis after treatment,[5]; 5 micromoles,all
same,Treated (cell number × 10^5),[5]; 5 micromoles,0 × 10^5
same,cells that went to apoptosis after treatment,[6]; 5 micromoles,all
same,Treated (cell number × 10^5),[6]; 5 micromoles,0 × 10^5
same,"originally seeded cells survived (fraction, words)",[7]; 5 micromoles,less than one third
same,Treated (cell number × 10^5),[7]; 5 micromoles,0.1 × 10^5
same,cells that went to apoptosis after treatment,[8]; 5 micromoles,all
same,Treated (cell number × 10^5),[8]; 5 micromoles,0 × 10^5
same,Treated (cell number × 10^5),[9]; 5 micromoles,0 × 10^5
same,cells that went to apoptosis after treatment,[10]; 5 micromoles,all
same,Treated (cell number × 10^5),[10]; 5 micromoles,0 × 10^5
same,cells that went to apoptosis after treatment,[11],all
same,Treated (cell number × 10^5),[11],0 × 10^5
same,cells that went to apoptosis after treatment,[12]; 5 micromoles,all
same,Treated (cell number × 10^5),[12]; 5 micromoles,0 × 10^5
same,cells that went to apoptosis after treatment,[13]; 5 micromoles,all
same,Treated (cell number × 10^5),[13]; 5 micromoles,0 × 10^5
same,cells that went to apoptosis after treatment,[17],all
same,cell apoptosis during co-treatment,[15],without detected cell apoptosis
same,effect on EGF-induced transformed morphology,[15],partially blocked
same,reduction of colony number in soft agar,[16],82%
